Experimental data reported in patent US7662767B2, “Polynucleotide intercalator interceptors and inhibitors” (Materials Evolution and Development USA, Inc., priority 2000, dated 2010).

How the values were obtained:
[1] = Acridine orange self-association (AO-AO dimer), absorbance; assay type: binding
Procedure: Association constants were calculated using a modification of an equation described by Zaini et al. (1999) to determine equilibrium constants for weakly bound complexes by absorbance spectrophotometry. By definition K=Xd/(Xm* Xm), where K is the binding constant Kassoc, Xd is the concentration of the AO dimer and Xm is the concentration of the AO monomer. Conservation of mass gives Xt=Xm+2*Xd, where Xt is the total concentration of AO in solution. Rearranging the conservation of mass equation gives Xm=Xt−2*Xd, and substituting into the equation for Kassoc and rearranging gives Equation 4: Kassoc(Xt*Xt−4*Xt*Xd+4*Xd*Xd)−Xd=0 EQUATION 4:
Rearranging gives: Xd*Xd−(Xt+1/(4*.Kassoc)*Xd+Xt*Xt/4=0 EQUATION5:
Applying the quadratic formula (X=[−B±SQRT(B^2−4AC]/2A) to Equation 3-5 and taking a physically reasonable root gives Equation 3-6: Xd=[Xt+1/(4*K)−SQRT(Xt/(2*K)+1/[…])]/2 EQUATION 6:
Where SQRT ( ) indicates taking the square root of the content of the parentheses. The fluorescence values at λem 530 nm (F530) is a function of Xt and F530=Xd*ε, where “ε” is the fluorescence yield of the dimer. The equation was solved by non-linear least squares using Prism™ software and binding constants determined. […] Fluorescence values (fi) are reported as raw data normalized to scale and not adjusted by a dilution factor following aliquot additions. Absorbance data taken at 468 nm was also used to calculate the Kassoc for the AO-AO dimer using Equation 6.
In the example shown in FIG. 3-1A, absorbance was scanned between 400 nm and 550 nm over a range of AO concentrations from 2.5 μM to 20 μM in a 5 mM solution of HEPES buffer at pH 7.0. […] Note that the absorbance at 492 nm (A492) is indicative of the concentration of the AO monomer, whereas the absorbance at 468 nm (A468) is indicative of the concentration of the AO-AO dimer (Kapuscinski and Kimmel, 1993). […]
The absorbance was scanned between 410 nm and 540 nm over a range of AO concentrations from 10 μM-45 μM in a 5 mM solution of […] buffer at pH 7.0 in the presence of 150 mM of NaCl. […]

[2] = test system: chicken erythrocyte nuclear chromatin; experiment: Acridine orange staining of chicken erythrocyte nuclear chromatin, fluorescence microscopy; assay type: binding
Procedure: Chicken erythrocytes were chosen as one implementation of this invention. These nucleated cells have mature erythrocytes with no RNA. Blood was taken from a mature chicken. The blood was drawn from a wing vein into 50 ml glass heparin containing tubes to prevent clotting. This blood was used to make smears on microscope slides. These blood smeared slides were allowed to dry at room temperature and were stored in microscope boxes.
Solutions of AO were prepared at 5 mM and 10 μM concentrations in distilled water. Microscope slides smeared with chicken erythrocytes were stained by placing the slide into a glass slide holder containing 50 ml of AO solution under static conditions from 2 min to 30 min, followed by three 10 second rinses in distilled water before drying at room temperature. […] Processed slides were stored in the dark then read and photomicrographs taken (Zeiss Model 63 Microscope, 1600 ASA Kodak film) soon after removal from the dark to avoid photobleaching.
In the example shown in Table 4-1, the chicken erythrocytes were smeared and dried on a microscope slide prior to exposure to two different concentrations of AO (10 μM and 5 mM), rinsed with distilled water, and allowed to dry. Erythrocytes were examined with fluorescence microscopy and the color of the nuclei recorded. […]

CN(C)c1ccc2cc3ccc(N(C)C)cc3nc2c1.Cl [AO, 3,6-bis[dimethylamino]acridine hydrochloride]
K ± S.D. ([1]; Absorbance plus NaCl, AO [10-45 μM]): 47,510 ± 2,420 M^−1
K ± S.D. ([1]; Absorbance, AO [2.5-20 μM]): 46,840 ± 5,967 M^−1
K ± S.D. ([1]; Absorbance, AO [10-80 μM]): 49,530 ± 2,953 M^−1
Fluorescent Color ([2]; AO 10 μM): Green
Fluorescent Color ([2]; AO 5 mM): Red
